Laboratory results published in patent US4443619A, “Chlorocitric acids” (Hoffmann-La Roche Inc., priority 1981, dated 1984).

Columns and labels:
[1] = Food consumption of three diets in meal-fed rats (Example 15); type: in vivo, Charles River female rats; conditions: mean ± S.E.
Experimental: Charles River female rats (Charles River Breeding Laboratories, Wilmington, Mass.), weighing 170 to 200 g, were individually housed in wire-bottomed cages in a temperature-regulated (22° C.) light-controlled room (12 hr light, 6 a.m. to 6 p.m. and 12 hr dark, 6 p.m. to 6 a.m.). Animals were fasted 48 hr, then meal-fed the indicated diets from 8 to 11 a.m. Following 5 to 12 days alimentation on the meal-feeding regimen, rats were dosed with the appropriate compounds orally by intubation 1/2 hr before the 3 hr meal. Food cups were weighed immediately after the 1st, 2nd and 3rd hr of the meal. The control groups consisted of 8 to 10 rats and the experimental group considered of 5 to 6 rats.

[2] = Anorectic activities of stereoisomers: 3-day food consumption and body weight gain in meal-fed rats; type: in vivo, Charles River female rats; conditions: 1.32 mmoles/kg oral, 3 days, mean ± S.E.
Experimental: Charles River female rats (Charles River Breeding Laboratories, Wilmington, Mass.), weighing 196 to 210 g, were individually housed in wire-bottomed cages in a temperature-regulated (22° C.) light-controlled room (12 hr light, 6 a.m. to 6 p.m. and 12 hr dark, 6 p.m. to 6 a.m.). Animals were fasted 48 hr, then meal-fed a 70% glucose diet from 8 to 11 a.m. Following 5 to 12 days alimentation on the meal-feeding regimen, rats were dosed with the appropriate compounds orally by intubation 1/2 hr before the 3 hr meal for 3 days. The total food consumption and body weight gained during the 3 day period were determined. The control group consisted of 16 rats, while the experimental group consists of 8 rats.

[3] = Body weight gain in 8 hour meal-fed Zucker rats (Example 18); type: in vivo, lean (Fa/-) and obese (fa/fa); conditions: 0.66 mmoles/kg b.i.d. oral, 6 days, mean ± S.E.
Experimental: Lean (Fa/-) Zucker rats and obese (fa/fa) Zucker rats of both sexes were individually housed in wire-bottomed cages in a temperature-regulated (22° C.) light-controlled room (12 hr light, 6 a.m. to 6 p.m. and 12 hr dark, 6 p.m. to 6 a.m.). The animals were fed a high carbohydrate (70% glucose) diet ad libitum for 13 days, dosed with the indicated compounds by oral intubation for 9 days and allowed to recover for 3 days. The animals were then meal fed from 8 a.m. to 4 p.m. for a period of 5 days, following which they were continued on the same meal schedule for an additional 6 days. During the 6-day period, the animals were administered the indicated compounds by oral intubation at 8 a.m. and 12 p.m. Body weight gain during the 6-day period was determined.

Cholesterol Synthesis = test: Cholesterol synthesis in isolated rat hepatocytes (Example 23); type: cell-based, rat (female Charles River); conditions: 2 mM, 60 min, 37° C., 2000 µM
Experimental: Female Charles River rats were fasted 48 hr, then meal-fed a 1% corn oil, 70% glucose diet for 7 to 14 days from 8 to 11 a.m. The isolated rat hepatocytes were prepared by perfusing the liver in situ. The hepatocytes were incubated in an oscillating water bath at 37° C. for 60 min. […] All incubations were done in triplicate and all experiments were repeated at least twice. […] The contents of the center well were transferred to scintillation counting fluid and ^14 CO2 content was determined. […] The media was then acidified, extracted with hexane, and the extract counted (to determine the rate of lipogenesis). The conversion of ^3 H2 O and [^14 C]alanine into fatty acids or sterols was determined in a PDS/3, Mark II liquid scintillation counting system.

[4] = Food intake in dogs, pyramiding oral doses (Examples 26 and 27); type: in vivo, beagle dogs
Experimental: Twelve beagle dogs of both sexes weighing 7.6-12.2 kg were used for this test. The test compounds were contained in gelatin capsules for oral administration to two dogs of each sex. The animals were weighed and food consumption calculated daily excluding weekends throughout the test period. Each animal received 800 grams of diet daily consisting of 400 grams of Wayne pellet dog food mixed with 400 ml distilled water. The animals received pyramiding oral doses of the test compound over the three week period. On Monday and Tuesday of the first week the animals were weighed and food consumption was recorded (control). The animals received 3 mg/kg on Wednesday and 10 mg/kg on Friday of the first week. Doses of 30, 100 and 300 mg/kg were administered on Monday, Wednesday and Friday respectively during the second week. A final dose of 1000 mg/kg was administered on Monday of the third week.
Food intake was determined by the procedure by pyramiding doses described in Example 26.

[5] = Anorectic activity, body weight and carcass analysis in mammals (summary statements); type: in vivo
[6] = test system: fatty acid and cholesterol syntheses; test: Inhibition of fatty acid, lipid and cholesterol synthesis (summary statements)
[7] = 20% Corn Oil, 0.33 mmoles (75 mg)/kg oral
[8] = 20% Corn Oil, 0.66 mmoles (150 mg)/kg oral
[9] = 70% Glucose, 0.33 mmoles (75 mg)/kg oral
[10] = 70% Glucose, 0.66 mmoles (150 mg)/kg oral
[11] = Chow, 0.33 mmoles (75 mg)/kg oral
[12] = Chow, 0.66 mmoles (150 mg)/kg oral
[13] = test day 20, no dose, (±) one animal, (+) and (-) two animals

In the case of `O=C(O)C[C@@](O)(C(=O)O)[C@@H](Cl)C(=O)O` [(-)-threo-Chlorocitric acid, (-)-threo-chlorocitric acid], the “Food intake, 1st hr” value [1, 7] is reported as 4.0 ± 0.6 g, the “Food intake, 2nd hr” value [1, 7] is reported as 1.6 ± 1.1 g and the “Food intake, 3rd hr” value [1, 7] is reported as 1.3 ± 0.5 g. For the same molecule, the “Food intake, Total” value [1, 7] was 6.8 ± 1.6 g, the “Food intake, 1st hr” value [1, 8] was 3.6 ± 0.6 g and the “Food intake, 2nd hr” value [1, 8] was 2.2 ± 0.4 g. For the same molecule, the “Food intake, 3rd hr” value [1, 8] was 1.3 ± 0.4 g, the “Food intake, Total” value [1, 8] was 7.1 ± 0.9 g and the “Food intake, 1st hr” value [1, 9] was 2.2 ± 0.5 g. The “Food intake, 2nd hr” value [1, 9] was 2.2 ± 0.5 g, the “Food intake, 3rd hr” value [1, 9] was 3.8 ± 0.4 g and the “Food intake, Total” value [1, 9] was 8.2 ± 1.1 g. For the same molecule, the “Food intake, 1st hr” value [1, 10] was 2.7 ± 0.4 g, the “Food intake, 2nd hr” value [1, 10] was 1.7 ± 0.3 g and the “Food intake, 3rd hr” value [1, 10] was 2.3 ± 0.5 g. For the same molecule, the “Food intake, Total” value [1, 10] was 6.7 ± 0.7 g, the “Food intake, 1st hr” value [1, 11] was 4.2 ± 1.4 g and the “Food intake, 2nd hr” value [1, 11] was 1.6 ± 0.4 g. The “Food intake, 3rd hr” value [1, 11] was 2.3 ± 0.7 g, the “Food intake, Total” value [1, 11] was 8.1 ± 2.1 g and the “Food intake, 1st hr” value [1, 12] was 3.6 ± 0.9 g. The “Food intake, 2nd hr” value [1, 12] was 1.4 ± 0.2 g, the “Food intake, 3rd hr” value [1, 12] was 1.9 ± 0.4 g and the “Food intake, Total” value [1, 12] was 6.9 ± 1.2 g. For the same molecule, the “3-Day Body Weight Gain” value [2] was -22.4 ± 2.3 g, the “3-Day Food Consumption” value [2] was 10.5 ± 1.3 g and the “Body Weight Gain” value ([3]; Fa/- lean) was -20.7 ± 2.2 g. For the same molecule, the “Body Weight Gain” value ([3]; fa/fa obese) was -33.5 ± 3.1 g, the “Cholesterol Synthesis, 3H2O converted” value (Cholesterol Synthesis) was 98 % of control and the “Food Consumption, % of control” value [4, 13] was 82 % of control. For the same molecule, the “Food consumption” value [4, 13] was 607 ± 193 g, the “Food consumption” value ([4]; test days -2, -1, before dosing (control period)) was 743 ± 54 g and the “anorectic activity as measured by reduction in food consumption” value ([5]; acute meal-fed assay utilizing three diets and pyramiding dose studies, compared with hydroxycitric acid) was “significantly more active”. The “carcass analysis: origin of weight loss” value ([5]; chronic studies) was “weight loss was due to reduction in body lipids”, the “appetite suppression and reduced body weight gain” value ([5]; short- and long-term chronic studies, compared with hydroxycitric acid or citric acid) was “suppressed appetite and reduced body weight gain in mammals more efficaciously than hydroxycitric acid or citric acid” and the “metabolic activity on lipid (fatty acid) and cholesterol syntheses” value [6] was “devoid of metabolic activity as an inhibitor of lipid and cholesterol syntheses”.
